This note sets out measurements from patent EP3925667A1, “SELECTIVE TMPRSS2 INHIBITORS AND MEDICAL USE THEREOF” (priority 2020, dated 2021).

Structures can show the parent of a compound that is named as a salt. Where two headings read alike, the source gives them in different places.

The target in assay [1] is T1, Recomb. Human Thrombin (Homo sapiens, UniProt P00734).
T1 construct: purchased R&D systems 1473-SE-010
Briefly: Protease Thrombin inhibition assay, chromogenic substrate D-Phe-Homopro-Arg-pNA. To be noted: 30 minutes preincubation at room temperature, 100 µM reference substrate, absorption 405 nm, 25°C. Format: biochemical. As for the experimental part:
(§1) Protease Thrombin inhibiton assay - Calculation of IC50 values
Protease: Recomb. Human Thrombin, Bought 30.01.2020; Art. 1473-SE-010; Company: R&D systems Reference substrate: D-Phe-Homopro-Arg-pNA; Company: Bachem; Art no.: 4008145.0050
• Reconstitute at 100 µg/ml (1428.57 nM) in sterile 50 mM HEPES and 640 mM NaCl • Diluted to a stock solution c = 0.04 µg/µl with TNC buffer
(§2) • Dilute and aliquote 2.1 mg of reference substrate to a concentration of c = 2000 µM in TNC. Dilute and aliquote further to a concentration of c = 200 µM in TNC buffer. Endconcentration in well: c = 100 µM.
(§3) • Inhibitor was diluted with pure DMSO to a concentration of 10 mM • This 10 mM stock solution was further diluted:
(§4) • 25 mM Tris, 150 mM NaCl, 5 mM CaCl2, 0,01% Triton X-100, pH = 8 (stored at 8°C)
(§5) • Total volume per well: 100µl • Temperature: 25°C • Kinetic interval: every 2 minutes • Absorption: 405 nm • Number of flashes: 25 • Shaking before measurememt: 3s • Shaking amplitude: 5 mm
(§6) • Per well: add 50 µl of Thrombin/TNC solution (c = 0.04 µg/µl), add 1 µl of inhibitor. • Incubate for 30 minutes at room temperature • After incubation, add […] of c = 200 µM reference substrate Endconcentration of substances per well: c = 100 µM of reference substrate, c = 0.002 µg of […] solution, 1% DMSO
(§7) • Graph pad prism 7 was used to analyze the data. The velocity (change of absorbance over time) was plotted against the concentration. A non linear regression was performed with the following equation: [inhibitor] vs. response - Variable slope (four parameters)

Assay [2] relates to SARS-CoV2 WT. To be noted: 2 h.
The subject of assay [3] is pseudotyped particle LV(Luc)-CoV2 in CaCo-2 cells. To be noted: 2 h.
The target of assay [4] is T2, TMPRSS2 (Homo sapiens, UniProt O15393). The assay is described as follows: TMPRSS2 inhibition, IC50 (Table 1). Format: biochemical. To be noted: nonlinear regression, variable slope (four parameters).
T2 sequence (O15393 whole entry): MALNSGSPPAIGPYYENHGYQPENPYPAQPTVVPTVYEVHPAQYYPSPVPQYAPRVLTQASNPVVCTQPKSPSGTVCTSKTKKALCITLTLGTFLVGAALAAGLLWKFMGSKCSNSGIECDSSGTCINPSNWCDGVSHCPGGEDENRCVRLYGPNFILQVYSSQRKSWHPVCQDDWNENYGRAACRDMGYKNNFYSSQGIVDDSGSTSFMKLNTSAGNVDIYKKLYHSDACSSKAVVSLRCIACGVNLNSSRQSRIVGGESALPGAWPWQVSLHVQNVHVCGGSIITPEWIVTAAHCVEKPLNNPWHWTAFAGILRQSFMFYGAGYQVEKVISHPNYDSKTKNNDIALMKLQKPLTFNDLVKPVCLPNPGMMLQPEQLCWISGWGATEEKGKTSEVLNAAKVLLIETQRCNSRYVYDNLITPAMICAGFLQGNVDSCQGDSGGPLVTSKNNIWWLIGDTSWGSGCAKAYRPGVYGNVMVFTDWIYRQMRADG
Assay [5] concerns the target T3, Recomb. Human Coag. Factor Xa protein (Homo sapiens, UniProt P00742).
T3 construct: purchased Bio-Techne GmbH 1063-SE-010
Briefly: Protease Factor Xa inhibition assay, chromogenic substrate Bz-Ile-Glu-Gly-Arg-pNA. Format: biochemical. To be noted: 0.35 nM Factor Xa, 200 µM reference substrate, 30 minutes preincubation, absorption 405 nm, 25°C. The procedure: (§8) Protease Factor Xa inhibiton assay - Calculation of IC50 values
(§9) Recomb. Human Coag. Factor Xa protein, CF: Bought 09.12.2020; Art. 1063-SE-010; Company: Bio-Techne GmbH
(§10) • Reconstitute at 100 µg/ml in sterile 25 mM MES, 150 mM NaCl, 5 mM CaCl2, pH6 • Diluted to a stock solution of 1000 nM with TNC buffer • This stock solution was further diluted with TNC buffer to a concentration of 35 nM and aliquoted. Stored at -20°C. Endconcentration in well: c = 0.35 nM
• Delivered: 5mg. Dilute and aliquote reference substrate to a concentration of 10 mM in pure DMSO. Endconcentration in well: c = 200 µM (= KM for Factor Xa)
as §3, §4, §5
(§11) • Per well: add 97 µl TNC buffer, add 1 µl of c = 35 nM solution of Factor Xa, add 1 µl of inhibitor • Incubate for 30 minutes at room temperature • After incubation, add 1 µl of c = 10 mM reference substrate Endconcentration of substances per well: c = 200 µM of reference substrate, c = 0.35 nM of Factor Xa solution, 2% DMSO
(§12) Graph pad prism 7 was used to analyze the data. The velocity (change of absorbance over time) was plotted against the concentration. A non linear regression was performed with the following equation: [inhibitor] vs. response - Variable slope (four parameters) Table 1. IC50 values of inventive inhibitors with respect to TMPRSS2, thrombin and Factor Xa

The target of assay [6] is T2, TMPRSS2. Briefly: TMPRSS2 inhibition, IC50 (Table 1). Format: biochemical. To be noted: nonlinear regression, variable slope (four parameters). The source says: Inhibitors were screened against TMPRSS2, thrombin and factor Xa.
This is another data set of the same source.

The test system of assay [7] is pseudotyped particle LV(Luc)-CoV2 in CaCo-2 cells. Briefly: microbe, parasite or virus in culture. Format: cell-based, SARS-CoV2. To be noted: Severe acute respiratory syndrome coronavirus 2, 2 h incubation with inhibitor before transduction, luciferase activity at 48 h post transduction.
Assay [8] concerns the target T1, Recomb. Human Thrombin. The assay is described as follows: Protease Thrombin inhibition assay, chromogenic substrate D-Phe-Homopro-Arg-pNA. Format: biochemical. As for the experimental part:
as §1, §2, §3, §4, §6, §7

Assay [9] concerns the target T3, Recomb. Human Coag. Factor Xa protein. The assay is described as follows: Protease Factor Xa inhibition assay, chromogenic substrate Bz-Ile-Glu-Gly-Arg-pNA. Format: biochemical. To be noted: 0.35 nM Factor Xa, 200 µM reference substrate, 30 minutes preincubation, absorption 405 nm, 25°C. The procedure: as §8, §9, §10
• Delivered: 5mg. Dilute and aliquote reference substrate to a concentration of 10 mM in pure DMSO.
as §3, §4, §5, §11, §12
This is another data set of the same source.

Assay [10] has as its system SARS-CoV2 WT. Briefly: microbe, parasite or virus in culture. Format: cell-based. To be noted: Severe acute respiratory syndrome coronavirus 2.

T3 sequence (P00742 235-488 limits assumed): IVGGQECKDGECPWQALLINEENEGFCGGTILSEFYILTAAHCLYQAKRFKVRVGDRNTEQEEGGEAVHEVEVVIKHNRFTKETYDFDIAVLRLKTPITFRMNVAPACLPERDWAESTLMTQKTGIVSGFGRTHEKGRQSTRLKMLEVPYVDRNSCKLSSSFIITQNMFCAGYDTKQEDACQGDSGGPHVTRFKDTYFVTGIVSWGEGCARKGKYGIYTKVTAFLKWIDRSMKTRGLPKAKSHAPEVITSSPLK
T3 sequence (P00742 41-179 partner limits assumed): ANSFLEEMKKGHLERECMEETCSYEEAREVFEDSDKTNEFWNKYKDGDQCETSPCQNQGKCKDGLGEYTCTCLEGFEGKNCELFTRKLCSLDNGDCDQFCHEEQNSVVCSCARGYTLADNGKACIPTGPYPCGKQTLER

With `CC(=O)N[C@@H](CCCNC(=N)N)C(=O)N[C@@H](CCC(N)=O)C(=O)N[C@@H](CC(C)C)C(=O)N[C@@H](CCCNC(=N)N)C(=O)c1nc2ccccc2s1` [Compound 1, Ac-RQLR-kbt], the 50% inhibitory concentration (IC50) was over 100 µM against Recomb. Human Thrombin [1]; 11.1 µM with SARS-CoV2 WT [2]; 0.803 µM in assay [3]; 1.26 µM against TMPRSS2 [4]; 0.0471 µM in [5].

As for `CC(=O)N[C@@H](C)C(=O)N[C@@H](CCC(=O)O)C(=O)N[C@@H](CCC(N)=O)C(=O)N[C@@H](CCCNC(=N)N)C(=O)c1nc2ccccc2s1` [Compound 2, Ac-AEQR-kbt], the IC50 against Recomb. Human Thrombin [1] is over 100 µM; with SARS-CoV2 WT [2] it was 19 µM; in [3] it was 0.47 µM; on TMPRSS2 [4] it was 1.67 µM; in [5], 0.991 µM.

Turning to `CC(=O)NCC(=O)N[C@@H](CCC(N)=O)C(=O)N[C@@H](CCCNC(=N)N)C(=O)N[C@@H](CCCNC(=N)N)C(=O)c1nc2ccccc2s1` [Compound 3, Ac-GQRR-kbt], the IC50 is over 100 µM on Recomb. Human Thrombin [1]; 20.1 µM in the assay with SARS-CoV2 WT [2]; 1.3 µM in [3]; 0.332 µM at TMPRSS2 [4]; 22 µM in [5].

As to `CC(=O)N[C@@H](CCC(N)=O)C(=O)N[C@@H](CCC(N)=O)C(=O)N[C@H](C(=O)N[C@@H](CCCNC(=N)N)C(=O)c1nc2ccccc2s1)C(C)C` [Compound 4, Ac-QQVR-kbt], the IC50 against Recomb. Human Thrombin [1] was over 10 µM; with SARS-CoV2 WT [2] it was 58.5 µM; in assay [3] it was 2.05 µM; against TMPRSS2 [4], 0.5 µM; in assay [5] it was 1.5 µM.

With `CC(=O)N[C@@H](CCC(=O)O)C(=O)N[C@@H](CCC(N)=O)C(=O)N1CCC[C@H]1C(=O)N[C@@H](CCCNC(=N)N)C(=O)c1nc2ccccc2s1` [Compound 5, Ac-EQPR-kbt], the IC50 against Recomb. Human Thrombin [1] is over 100 µM; in assay [3], 2.1 µM; against TMPRSS2 [4], 2.87 µM; in [5], over 100 µM.

As for `CC(=O)N[C@@H](CC(N)=O)C(=O)N[C@@H](CCC(=O)O)C(=O)N[C@@H](CCC(N)=O)C(=O)N[C@@H](CCCNC(=N)N)C(=O)c1nc2ccccc2s1` [Compound 6, Ac-NEQR-kbt], the IC50 on Recomb. Human Thrombin [1] is over 100 µM; with SARS-CoV2 WT [2], 34.2 µM; in assay [3], 1.4 µM; against TMPRSS2 [4], 1.19 µM; in assay [5], 8.14 µM.

On to `CC(=O)N[C@@H](CCCNC(=N)N)C(=O)N[C@@H](CCC(=O)O)C(=O)N[C@@H](CS)C(=O)N[C@@H](CCCNC(=N)N)C(=O)c1nc2ccccc2s1` [Compound 7, Ac-RECR-kbt], for which the IC50 is over 100 µM against Recomb. Human Thrombin [1], 0.835 µM at TMPRSS2 [4] and 0.611 µM in [5].

On to `CC(=O)N[C@@H](CCCCN)C(=O)N[C@@H](CCC(N)=O)C(=O)N[C@@H](CC(C)C)C(=O)N[C@@H](CCCNC(=N)N)C(=O)c1nc2ccccc2s1` [Ref.1, Ac-KQLR-kbt, reference compound], for which the IC50 against Recomb. Human Thrombin [1] is over 100 µM; with SARS-CoV2 WT [2] it was 15.6 µM; in [3], 3.01 µM; against TMPRSS2 [4], 3.43 µM; in assay [5] it was 0.338 µM.

For the compound `[H]/N=C(/N)c1ccc(NCc2nc3cc(C(=O)N(CCC(=O)O)c4ccccn4)ccc3n2C)cc1` [Ref.2, Dabigatran], on TMPRSS2 [6], the IC50 is over 100 µM.

In the case of `CC(=O)N[C@@H](CC(C)C)C(=O)N[C@@H](CC(C)C)C(=O)N[C@H](C=O)CCCNC(=N)N` [Ref.3, Leupeptin], the IC50 in assay [7] is 36.8 µM; against Recomb. Human Thrombin [8] it was over 100 µM; in assay [9], over 13.9 µM; against TMPRSS2 [6], over 27.6 µM.

Take `N=C(N)c1ccccc1` [Ref.4, Benzamidine]: the IC50 was over 1000 µM in [7], over 100 µM in assay [9] and over 100 µM against TMPRSS2 [6].

Take `CN(C)C(=O)COC(=O)Cc1ccc(OC(=O)c2ccc(NC(=N)N)cc2)cc1` [Ref.5, Camostat mesylate]: the IC50 was 0.505 µM in assay [7], 32.4 µM in the assay with SARS-CoV2 WT [10] and 5.3 µM in [9].

On to `N=C(N)NCCC[C@H](NC(=O)[C@@H]1CCCN1C(=O)[C@H](N)Cc1ccccc1)C(=O)CCl` [Ref.6, PPack], for which the IC50 against Recomb. Human Thrombin [8] is 0.000268 µM; in [9], 0.0745 µM; against TMPRSS2 [6], over 100 µM.

For `N=C(N)c1ccc(CNC(=O)[C@@H]2CCN2C(=O)[C@H](NCC(=O)O)C2CCCCC2)cc1` [Ref.7, Melagatran], the IC50 in assay [9] amounted to 0.216 µM.

With `N=C(N)Nc1ccc(C(=O)Oc2ccc(CC(=O)O)cc2)cc1` [Ref.8, FOY 251], the IC50 is over 100 µM against Recomb. Human Thrombin [8] and 21.5 µM in assay [9].

`CC[C@H](C)[C@H](NC(=O)[C@H](C)NC(=O)[C@H](CCC(=O)O)NC(=O)[C@H](CCC(=O)O)NC(=O)[C@H](CC(C)C)NC(=O)[C@H](CCCCN)NC(=O)[C@H](CCCCN)NC(=O)[C@H](CCSC)NC(=O)[C@H](CCC(=O)O)NC(=O)[C@H](Cc1ccc(O)cc1)NC(=O)[C@H](CCC(=O)O)NC(=O)[C@H](CC(C)C)NC(=O)[C@H](CC(=O)O)NC(=O)[C@H](CC(C)C)NC(=O)[C@H](Cc1ccccc1)NC(=O)[C@@H](NC(=O)[C@@H](NC(=O)[C@H](CC(N)=O)NC(=O)[C@@H](NC(=O)[C@H](CCC(N)=O)NC(=O)[C@H](CC(=O)O)NC(=O)[C@H](CC(C)C)NC(=O)[C@@H](N)CO)[C@@H](C)CC)C(C)C)[C@@H](C)O)C(=O)N[C@@H](CCCCN)C(=O)N[C@@H](CCCCN)C(=O)N[C@@H](CC(C)C)C(=O)N[C@@H](CCC(=O)O)C(=O)N[C@@H](CCC(=O)O)C(=O)N[C@@H](CO)C(=O)N[C@@H](Cc1ccc(O)cc1)C(=O)N[C@H](C(=O)N[C@@H](CC(=O)O)C(=O)N[C@@H](CC(C)C)C(=O)N[C@@H](CCCCN)C(=O)N[C@@H](CCC(=O)O)C(=O)N[C@@H](CC(C)C)C(=O)O)[C@@H](C)CC` [Ref.9, EK1, reference compound] showed an IC50 in assay [3] of 0.228 µM.
